Assay results reported in ChEMBL document CHEMBL4507285, “Data for DCP probe MRL-SYKi” (2021).

Assays:
[1] = test system: Tyrosine-protein kinase ABL1 (Homo sapiens), P00519 [Y253F]; conditions: Compound concentration 100.0 nM
[2] = target: Activin receptor type-1 (Homo sapiens) (UniProt Q04771); conditions: Compound concentration 100.0 nM
[3] = target: RAC-alpha serine/threonine-protein kinase (Homo sapiens) (UniProt P31749); conditions: Compound concentration 100.0 nM
[4] = target: Bone morphogenetic protein receptor type-1B (Homo sapiens) (UniProt O00238); conditions: Compound concentration 100.0 nM
[5] = target: Tyrosine-protein kinase BTK (Homo sapiens) (UniProt Q06187); conditions: Compound concentration 100.0 nM
Sequence of Tyrosine-protein kinase BTK (Homo sapiens) (Q06187 whole entry): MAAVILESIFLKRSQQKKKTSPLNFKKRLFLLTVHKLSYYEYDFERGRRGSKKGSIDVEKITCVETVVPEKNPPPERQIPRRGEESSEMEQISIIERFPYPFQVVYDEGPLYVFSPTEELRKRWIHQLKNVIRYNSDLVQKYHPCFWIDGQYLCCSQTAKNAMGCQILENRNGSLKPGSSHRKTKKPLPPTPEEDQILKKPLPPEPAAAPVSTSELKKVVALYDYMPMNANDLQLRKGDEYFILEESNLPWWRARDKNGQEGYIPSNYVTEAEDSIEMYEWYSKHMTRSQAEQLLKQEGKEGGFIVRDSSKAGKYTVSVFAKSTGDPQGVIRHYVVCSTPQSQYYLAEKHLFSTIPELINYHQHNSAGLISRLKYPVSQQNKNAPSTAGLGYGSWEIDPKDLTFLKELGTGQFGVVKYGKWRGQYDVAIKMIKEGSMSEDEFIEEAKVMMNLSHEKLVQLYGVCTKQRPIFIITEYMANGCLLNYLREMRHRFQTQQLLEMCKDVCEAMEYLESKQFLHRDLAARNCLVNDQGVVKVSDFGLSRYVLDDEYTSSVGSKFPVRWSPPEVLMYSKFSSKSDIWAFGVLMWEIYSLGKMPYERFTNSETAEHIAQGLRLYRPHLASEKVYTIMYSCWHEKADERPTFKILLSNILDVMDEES

[6] = target: Mitotic checkpoint serine/threonine-protein kinase BUB1 (Homo sapiens) (UniProt O43683); conditions: Compound concentration 100.0 nM
[7] = target: Cyclin-dependent kinase 2 (Homo sapiens) (UniProt P24941); conditions: Compound concentration 100.0 nM
[8] = target: Cyclin-dependent kinase 8 (Homo sapiens) (UniProt P49336); conditions: Compound concentration 100.0 nM
[9] = target: Macrophage colony-stimulating factor 1 receptor (Homo sapiens) (UniProt P07333); conditions: Compound concentration 100.0 nM
[10] = target: Casein kinase II subunit alpha' (Homo sapiens) (UniProt P19784); conditions: Compound concentration 100.0 nM
[11] = test system: Epidermal growth factor receptor (Homo sapiens), P00533 [UNDEFINED MUTATION]; conditions: Compound concentration 100.0 nM
Sequence of Epidermal growth factor receptor (Homo sapiens), P00533 [UNDEFINED MUTATION] (P00533 whole entry, looked up, change not shown): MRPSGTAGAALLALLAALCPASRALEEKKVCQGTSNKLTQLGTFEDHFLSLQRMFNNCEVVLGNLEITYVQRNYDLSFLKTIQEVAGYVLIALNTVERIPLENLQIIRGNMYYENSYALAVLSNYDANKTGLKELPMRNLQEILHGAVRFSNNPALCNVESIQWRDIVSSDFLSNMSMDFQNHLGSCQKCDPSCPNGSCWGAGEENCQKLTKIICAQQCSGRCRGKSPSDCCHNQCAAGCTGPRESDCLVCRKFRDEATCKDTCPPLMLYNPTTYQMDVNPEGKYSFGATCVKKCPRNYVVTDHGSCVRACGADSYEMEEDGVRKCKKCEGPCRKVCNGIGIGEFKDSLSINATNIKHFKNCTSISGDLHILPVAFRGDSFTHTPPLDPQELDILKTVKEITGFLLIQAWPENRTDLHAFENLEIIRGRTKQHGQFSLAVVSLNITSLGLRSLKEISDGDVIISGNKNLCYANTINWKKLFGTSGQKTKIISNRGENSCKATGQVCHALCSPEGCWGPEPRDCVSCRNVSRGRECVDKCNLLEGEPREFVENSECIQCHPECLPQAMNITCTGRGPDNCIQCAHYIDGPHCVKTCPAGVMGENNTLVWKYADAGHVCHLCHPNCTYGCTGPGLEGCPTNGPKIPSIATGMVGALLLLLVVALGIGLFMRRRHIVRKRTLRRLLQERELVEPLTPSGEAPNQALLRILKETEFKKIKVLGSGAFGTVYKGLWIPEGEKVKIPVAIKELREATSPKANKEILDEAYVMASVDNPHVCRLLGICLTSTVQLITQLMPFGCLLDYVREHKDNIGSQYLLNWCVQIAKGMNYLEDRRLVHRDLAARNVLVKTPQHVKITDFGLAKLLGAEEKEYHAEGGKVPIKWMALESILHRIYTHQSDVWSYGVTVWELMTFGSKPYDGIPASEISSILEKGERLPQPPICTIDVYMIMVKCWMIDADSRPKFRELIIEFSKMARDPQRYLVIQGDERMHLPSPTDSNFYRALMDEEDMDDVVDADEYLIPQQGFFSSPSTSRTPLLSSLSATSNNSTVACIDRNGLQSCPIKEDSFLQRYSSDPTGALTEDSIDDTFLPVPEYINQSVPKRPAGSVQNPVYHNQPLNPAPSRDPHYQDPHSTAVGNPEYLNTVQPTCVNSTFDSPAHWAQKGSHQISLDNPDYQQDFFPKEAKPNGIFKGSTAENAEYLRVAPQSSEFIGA

[12] = test system: Epidermal growth factor receptor (Homo sapiens), P00533 [UNDEFINED MUTATION]; conditions: Compound concentration 100.0 nM; remark: listed apart in the source
[13] = target: Ephrin type-B receptor 4 (Homo sapiens) (UniProt P54760); conditions: Compound concentration 100.0 nM
[14] = target: Serine/threonine-protein kinase/endoribonuclease IRE1 (Homo sapiens) (UniProt O75460); conditions: Compound concentration 100.0 nM
[15] = target: Tyrosine-protein kinase Fes/Fps (Homo sapiens) (UniProt P07332); conditions: Compound concentration 100.0 nM
[16] = target: Fibroblast growth factor receptor 4 (Homo sapiens) (UniProt P22455); conditions: Compound concentration 100.0 nM
Sequence of Fibroblast growth factor receptor 4 (Homo sapiens) (P22455 22-802 limits assumed): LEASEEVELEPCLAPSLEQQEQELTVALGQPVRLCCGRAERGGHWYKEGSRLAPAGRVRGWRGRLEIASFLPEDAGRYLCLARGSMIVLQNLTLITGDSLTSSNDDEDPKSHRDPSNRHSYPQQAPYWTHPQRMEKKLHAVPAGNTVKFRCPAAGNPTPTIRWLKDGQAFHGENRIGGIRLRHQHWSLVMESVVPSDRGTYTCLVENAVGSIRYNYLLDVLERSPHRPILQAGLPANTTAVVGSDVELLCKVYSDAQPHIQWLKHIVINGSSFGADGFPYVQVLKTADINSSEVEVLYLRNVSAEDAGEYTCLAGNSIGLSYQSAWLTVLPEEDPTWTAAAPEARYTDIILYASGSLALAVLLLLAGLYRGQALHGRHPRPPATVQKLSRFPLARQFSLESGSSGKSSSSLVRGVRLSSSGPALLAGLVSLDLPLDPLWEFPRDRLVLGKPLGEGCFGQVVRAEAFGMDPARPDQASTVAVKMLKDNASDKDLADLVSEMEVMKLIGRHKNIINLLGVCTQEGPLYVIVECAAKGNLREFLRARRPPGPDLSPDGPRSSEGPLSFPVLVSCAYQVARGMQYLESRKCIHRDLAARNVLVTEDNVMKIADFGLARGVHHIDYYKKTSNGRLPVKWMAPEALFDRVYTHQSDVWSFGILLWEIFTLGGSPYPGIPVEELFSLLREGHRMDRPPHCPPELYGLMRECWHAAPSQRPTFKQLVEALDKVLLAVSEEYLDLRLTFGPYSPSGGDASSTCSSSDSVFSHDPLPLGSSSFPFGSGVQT

[17] = test system: Receptor-type tyrosine-protein kinase FLT3 (Homo sapiens), P36888 [UNDEFINED MUTATION]; conditions: Compound concentration 100.0 nM
Sequence of Receptor-type tyrosine-protein kinase FLT3 (Homo sapiens), P36888 [UNDEFINED MUTATION] (P36888 whole entry, looked up, change not shown): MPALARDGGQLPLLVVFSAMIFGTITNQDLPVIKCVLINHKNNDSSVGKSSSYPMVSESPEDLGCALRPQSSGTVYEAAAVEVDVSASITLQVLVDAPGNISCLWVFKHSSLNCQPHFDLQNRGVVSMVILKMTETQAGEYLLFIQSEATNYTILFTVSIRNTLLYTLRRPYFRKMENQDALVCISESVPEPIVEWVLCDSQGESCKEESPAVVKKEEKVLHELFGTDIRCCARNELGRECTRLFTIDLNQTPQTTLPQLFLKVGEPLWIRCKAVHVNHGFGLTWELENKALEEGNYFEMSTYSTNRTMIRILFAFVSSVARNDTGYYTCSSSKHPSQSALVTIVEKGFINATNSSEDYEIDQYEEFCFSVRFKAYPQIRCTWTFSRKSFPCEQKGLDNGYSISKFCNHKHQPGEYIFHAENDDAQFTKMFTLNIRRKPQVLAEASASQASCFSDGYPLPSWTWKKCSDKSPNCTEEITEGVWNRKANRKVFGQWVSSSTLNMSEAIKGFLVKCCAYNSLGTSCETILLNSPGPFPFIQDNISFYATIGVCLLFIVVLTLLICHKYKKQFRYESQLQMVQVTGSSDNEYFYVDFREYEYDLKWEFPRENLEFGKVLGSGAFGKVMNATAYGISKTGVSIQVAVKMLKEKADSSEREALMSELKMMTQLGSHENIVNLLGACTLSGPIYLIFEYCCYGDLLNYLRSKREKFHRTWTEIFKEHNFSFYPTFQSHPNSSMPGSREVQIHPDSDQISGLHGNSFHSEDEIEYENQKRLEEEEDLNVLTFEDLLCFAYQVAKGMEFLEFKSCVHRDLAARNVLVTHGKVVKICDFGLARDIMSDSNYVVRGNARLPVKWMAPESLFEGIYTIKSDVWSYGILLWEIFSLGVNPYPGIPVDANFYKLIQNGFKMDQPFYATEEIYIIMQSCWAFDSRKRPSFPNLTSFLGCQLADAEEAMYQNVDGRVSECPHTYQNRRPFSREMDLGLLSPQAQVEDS

[18] = target: Interleukin-1 receptor-associated kinase 3 (Homo sapiens) (UniProt Q9Y616); conditions: Compound concentration 100.0 nM
[19] = target: Tyrosine-protein kinase JAK1 (Homo sapiens) (UniProt P23458); conditions: Compound concentration 100.0 nM
[20] = test system: Leucine-rich repeat serine/threonine-protein kinase 2 (Homo sapiens), Q5S007 [G2019S]; conditions: Compound concentration 100.0 nM
[21] = target: Mitogen-activated protein kinase kinase kinase 15 (Homo sapiens) (UniProt Q6ZN16); conditions: Compound concentration 100.0 nM
[22] = target: Mitogen-activated protein kinase kinase kinase 2 (Homo sapiens) (UniProt Q9Y2U5); conditions: Compound concentration 100.0 nM
[23] = target: MAP/microtubule affinity-regulating kinase 4 (Homo sapiens) (UniProt Q96L34); conditions: Compound concentration 100.0 nM
[24] = target: Dual specificity mitogen-activated protein kinase kinase 7 (Homo sapiens) (UniProt O14733); conditions: Compound concentration 100.0 nM
[25] = target: Serine/threonine-protein kinase 4 (Homo sapiens) (UniProt Q13043); conditions: Compound concentration 100.0 nM
[26] = target: Macrophage-stimulating protein receptor (Homo sapiens) (UniProt Q04912); conditions: Compound concentration 100.0 nM
[27] = target: Muscle, skeletal receptor tyrosine-protein kinase (Homo sapiens) (UniProt O15146); conditions: Compound concentration 100.0 nM
[28] = target: Myosin light chain kinase family member 4 (Homo sapiens) (UniProt Q86YV6); conditions: Compound concentration 100.0 nM
[29] = target: Serine/threonine-protein kinase Nek3 (Homo sapiens) (UniProt P51956); conditions: Compound concentration 100.0 nM
Sequence of Serine/threonine-protein kinase Nek3 (Homo sapiens) (P51956 whole entry): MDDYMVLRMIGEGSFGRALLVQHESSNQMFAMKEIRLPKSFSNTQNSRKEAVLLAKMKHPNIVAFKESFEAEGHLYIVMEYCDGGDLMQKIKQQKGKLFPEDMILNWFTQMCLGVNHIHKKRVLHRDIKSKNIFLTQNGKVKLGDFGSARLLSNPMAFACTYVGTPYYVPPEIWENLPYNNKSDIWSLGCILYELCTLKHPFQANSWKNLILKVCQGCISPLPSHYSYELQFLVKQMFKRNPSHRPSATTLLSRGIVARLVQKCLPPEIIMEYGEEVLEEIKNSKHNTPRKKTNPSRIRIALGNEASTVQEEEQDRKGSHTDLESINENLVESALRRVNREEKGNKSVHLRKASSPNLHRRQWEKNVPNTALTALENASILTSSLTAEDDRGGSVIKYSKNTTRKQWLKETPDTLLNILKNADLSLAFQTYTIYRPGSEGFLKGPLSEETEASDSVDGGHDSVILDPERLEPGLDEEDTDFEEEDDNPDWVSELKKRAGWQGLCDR

[30] = target: Serine/threonine-protein kinase OSR1 (Homo sapiens) (UniProt O95747); conditions: Compound concentration 100.0 nM
[31] = target: Cyclin-dependent kinase 17 (Homo sapiens) (UniProt Q00537); conditions: Compound concentration 100.0 nM
[32] = target: Phosphatidylinositol 4-phosphate 5-kinase type-1 gamma (Homo sapiens) (UniProt O60331); conditions: Compound concentration 100.0 nM
[33] = target: Phosphatidylinositol 5-phosphate 4-kinase type-2 gamma (Homo sapiens) (UniProt Q8TBX8); conditions: Compound concentration 100.0 nM
Sequence of Phosphatidylinositol 5-phosphate 4-kinase type-2 gamma (Homo sapiens) (Q8TBX8 whole entry): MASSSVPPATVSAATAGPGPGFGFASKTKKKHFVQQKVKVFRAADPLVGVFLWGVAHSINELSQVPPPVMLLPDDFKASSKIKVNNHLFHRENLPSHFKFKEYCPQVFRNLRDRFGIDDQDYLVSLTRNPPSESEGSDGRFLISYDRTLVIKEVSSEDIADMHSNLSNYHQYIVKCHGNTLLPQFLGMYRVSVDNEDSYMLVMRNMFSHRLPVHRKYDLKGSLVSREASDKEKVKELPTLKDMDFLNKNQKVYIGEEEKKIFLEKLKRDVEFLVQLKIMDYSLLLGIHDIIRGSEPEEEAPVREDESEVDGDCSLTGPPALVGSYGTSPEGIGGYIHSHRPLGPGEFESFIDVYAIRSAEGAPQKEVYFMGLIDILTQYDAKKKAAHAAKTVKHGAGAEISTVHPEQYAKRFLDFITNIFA

[34] = target: Protein kinase C delta type (Homo sapiens) (UniProt Q05655); conditions: Compound concentration 100.0 nM
[35] = target: Protein kinase C epsilon type (Homo sapiens) (UniProt Q02156); conditions: Compound concentration 100.0 nM
[36] = target: Serine/threonine-protein kinase D2 (Homo sapiens) (UniProt Q9BZL6); conditions: Compound concentration 100.0 nM
[37] = target: Protein-tyrosine kinase 2-beta (Homo sapiens) (UniProt Q14289); conditions: Compound concentration 100.0 nM
[38] = target: Rho-associated protein kinase 2 (Homo sapiens) (UniProt O75116); conditions: Compound concentration 100.0 nM
[39] = target: Ribosomal protein S6 kinase alpha-5 (Homo sapiens) (UniProt O75582); conditions: Compound concentration 100.0 nM
[40] = target: Ribosomal protein S6 kinase alpha-3 (Homo sapiens) (UniProt P51812); conditions: Compound concentration 100.0 nM
[41] = target: SRSF protein kinase 2 (Homo sapiens) (UniProt P78362); conditions: Compound concentration 100.0 nM
[42] = target: Tyrosine-protein kinase Tec (Homo sapiens) (UniProt P42680); conditions: Compound concentration 100.0 nM
[43] = target: High affinity nerve growth factor receptor (Homo sapiens, UniProt P04629); conditions: Compound concentration 100.0 nM
[44] = target: Histamine H2 receptor (Homo sapiens) (UniProt P25021); conditions: Compound concentration 10.0 uM
[45] = target: Beta-1 adrenergic receptor (Homo sapiens) (UniProt P08588); conditions: Compound concentration 10.0 uM

Sequence of RAC-alpha serine/threonine-protein kinase (Homo sapiens) (P31749 whole entry): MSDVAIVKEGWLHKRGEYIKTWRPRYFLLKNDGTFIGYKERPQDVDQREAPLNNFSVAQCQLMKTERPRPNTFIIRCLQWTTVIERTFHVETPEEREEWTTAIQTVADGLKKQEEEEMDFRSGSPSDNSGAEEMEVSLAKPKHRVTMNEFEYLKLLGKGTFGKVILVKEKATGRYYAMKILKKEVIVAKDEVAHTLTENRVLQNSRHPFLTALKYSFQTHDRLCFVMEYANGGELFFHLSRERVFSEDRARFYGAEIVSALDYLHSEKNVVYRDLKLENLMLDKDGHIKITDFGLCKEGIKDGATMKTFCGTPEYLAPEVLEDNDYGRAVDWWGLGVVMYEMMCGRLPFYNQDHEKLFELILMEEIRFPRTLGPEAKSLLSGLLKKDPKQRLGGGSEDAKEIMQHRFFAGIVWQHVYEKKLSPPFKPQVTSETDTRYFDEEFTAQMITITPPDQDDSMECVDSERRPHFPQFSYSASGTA

In the case of `Cc1ccc(-c2cnc([C@@]3(O)CC[C@H](C(=O)O)C(C)(C)C3)s2)cc1Nc1cccc(C(F)(F)F)n1` [MRL-SYKi-NC], the residual activity [1] is reported as 81.9%, the residual activity [2] is reported as 100% and the residual activity [3] is reported as 92.3%. It also gave a residual activity [4] of 92.3%, a residual activity [5] of 86.1% and a residual activity [6] of 100%. The residual activity [7] was 98.8%, the residual activity [8] was 78.7% and the residual activity [9] was 100%. The residual activity [10] was 59.8%, the residual activity [11] was 100% and the residual activity [12] was 67.1%. For the same compound, the residual activity [13] was 100%, the residual activity [14] was 68.6% and the residual activity [15] was 100%. It also gave a residual activity [16] of 100%, a residual activity [17] of 97.5% and a residual activity [18] of 93%. The residual activity [19] was 100%, the residual activity [20] was 64.9% and the residual activity [21] was 85%. For the same compound, the residual activity [22] was 100%, the residual activity [23] was 71.5% and the residual activity [24] was 77.8%. For the same compound, the residual activity [25] was 69.1%, the residual activity [26] was 100% and the residual activity [27] was 93.6%. For the same compound, the residual activity [28] was 100%, the residual activity [29] was 82.8% and the residual activity [30] was 69.9%. For the same compound, the residual activity [31] was 100%, the residual activity [32] was 100% and the residual activity [33] was 97.5%. It also gave a residual activity [34] of 89%, a residual activity [35] of 100% and a residual activity [36] of 100%. It also gave a residual activity [37] of 72.5%, a residual activity [38] of 85.3% and a residual activity [39] of 71.4%. For the same compound, the residual activity [40] was 73.8%, the residual activity [41] was 91.9% and the residual activity [42] was 91.2%. The residual activity [43] was 64.5%, the inhibition [44] was 8.65% and the inhibition [45] was 10.3%.
For `Cc1cc(Nc2nccc(C)n2)cc(-c2cnc([C@@]3(O)CC[C@H](C(=O)O)C(C)(C)C3)s2)c1` [MRL-SYKi], the residual activity [1] was 100%, the residual activity [2] was 59.3% and the residual activity [3] was 100%. The residual activity [4] was 100%, the residual activity [5] was 81.5% and the residual activity [6] was 100%. For the same compound, the residual activity [7] was 94.7%, the residual activity [8] was 100% and the residual activity [9] was 100%. For the same compound, the residual activity [10] was 100%, the residual activity [11] was 65% and the residual activity [12] was 67.7%. The residual activity [13] was 100%, the residual activity [14] was 90.2% and the residual activity [15] was 100%. The residual activity [16] was 100%, the residual activity [17] was 59.1% and the residual activity [18] was 44.7%. The residual activity [19] was 100%, the residual activity [20] was 92.3% and the residual activity [21] was 80.5%. The residual activity [22] was 100%, the residual activity [23] was 100% and the residual activity [24] was 90.3%. It also gave a residual activity [25] of 100%, a residual activity [26] of 65.9% and a residual activity [27] of 100%. It also gave a residual activity [28] of 100%, a residual activity [29] of 50.7% and a residual activity [30] of 79.9%. It also gave a residual activity [31] of 73.2%, a residual activity [32] of 92.4% and a residual activity [33] of 91.9%. For the same compound, the residual activity [34] was 83.7%, the residual activity [35] was 100% and the residual activity [36] was 96.1%. It also gave a residual activity [37] of 100%, a residual activity [38] of 85.9% and a residual activity [39] of 100%. For the same compound, the residual activity [40] was 83.4%, the residual activity [41] was 100% and the residual activity [42] was 75.2%. For the same compound, the residual activity [43] was 30.2%, the inhibition [44] was 3.06% and the inhibition [45] was -9.08%.
